From patent US11925654B2, “Esters of 2-deoxy-monosaccharides with anti proliferative activity” (Board of Regents, The University of Texas System, priority 2013, dated 2024)

What was measured:
U87 = test: MTS cytotoxicity assay, 72 hours drug exposure, U87 brain tumor cells; format: cell-based; settings: Homo sapiens, U-87 MG, final DMSO 0.5%
Method: (§1) In the first set of assays, IC50 values were determined for each compound after 72 hours of drug exposure in each of the tumor cell lines. Cell lines tested include D54, U87, Panc-1, AsPc-1, Colo357-FG, L3.6, H226, H352, H441 cell lines.
U87 is a human primary glioblastoma cell line formally known as U-87 MG. It has epithelial morphology, and was obtained from a patient with stage four cancer. U-87 MG can be obtained from the American Type Culture Collection (ATCC) where it is known by the accession number HTB-14. The entire sequence of the genome of U-87 MG has recently been published in PLoS Genetics, 2010 January; 6(1): e1000832. This is a hypodiploid human cell line with the modal chromosome number of 44 occurring in 48% of cells. The rate of higher ploidy was 5.9%. Twelve markers were common to all cells, including der(1)t(1;3) (p22;q21), der(16)t(1;16) (p22;p12), del(9) (p13) and nine others. The marker der(1) had two copies in most cells. There was only one copy of normal X. N1, N6 and N9 were not found.
(§2) All cell lines were maintained in respective growth media at 37° C., 5% CO2 and 98% humidity. Cells were treated with the compounds and all drug concentrations were diluted so that the final concentration of DMSO is 0.5%. The cytotoxic effect was measured by the MTS Assay (Tetrazolium), which is a colorimetric method for determining the number of viable cells. After the 72 hours of incubation with drug, Promega's MTS reagent were added to the cells according to manufacturer's instructions and incubated for 2 hours. The plates were read at 490 nm and the resulting data graphed with GraphPad Prism 5 software.
(§3) IC50 was calculated, which is approximate equivalent of IG50 (concentration at which 50% growth inhibition is measured). The IC50 values represent […] of the drug concentration.

Colo357-FG = test: MTS cytotoxicity assay, 72 hours drug exposure, Colo357-FG pancreatic cancer cells; format: cell-based; settings: Homo sapiens, COLO 357/FG, final DMSO 0.5%
Method: as §1
COLO 357 FG is continuous human cell line, COLO 357, with exceptional characteristics was derived from a metastasis of a pancreatic adenocarcinoma. COLO 357 grew as an adhering monolayer with a cell doubling time of 21 h and grew with 10% clonal efficiency in soft agar. COLO 357 cells had numerous lamellar inclusions. The cells elaborated the pancreatic enzymes trypsin, elastase and chymotrypsin. COLO 357 also secreted appreciable amounts of carcinoembryonic antigen and human chorionic gonadotropin. […] Nine nucleolar organizing regions were found by silver-stained metaphase preparations. COLO 357 has been “fingerprinted” for seven allelic isozymes.
as §2, §3

Compound: CC(C)CC(=O)OCC1OC(O)CC(OC(=O)CC(C)C)C1O (centres unmarked) [WP1263]
- IC50 (U87): 37 µM
- IC50 (Colo357-FG): 160 µM

Compound: CCCCC(=O)OCC1OC(O)CC(OC(=O)CCCC)C1O (centres unmarked) [WP1232]
- IC50 (U87): 250 µM
- IC50 (Colo357-FG): 490 µM

Compound: CCCCC(=O)OC[C@H]1OC(O)C[C@@H](O)[C@@H]1OC(=O)CCCC (stereo partly drawn) [WP1233, 4,6-Di-O-Valeroyl-2-Deoxy-D-Glucopyranose]
- IC50 (U87): 200 µM
- IC50 (Colo357-FG): 230 µM

Compound: CCC(CC)C(=O)OCC1OCCC(OC(=O)C(CC)CC)C1O (centres unmarked) [WP1317]
- IC50 (U87): 2100 µM
- IC50 (Colo357-FG): 2100 µM

Compound: CCC(CC)C(=O)OC1CC(OC(=O)C(CC)CC)C(O)C(CO)O1 [WP1261, 1,3-Di-O-(2-Ethyl)Butyryl-2-Deoxy-β-D-Glucopyranose]
- IC50 (U87): 741 µM
- IC50 (Colo357-FG): 340 µM

Compound: CCCC(=O)OC[C@H]1OC(O)C[C@@H](O)[C@@H]1OC(=O)CCC (stereo partly drawn) [WP1214, 4,6-Di-O-Butyryl-2-Deoxy-D-Glucopyranose]
- IC50 (U87): 300 µM
- IC50 (Colo357-FG): 440 µM

Compound: CCC(=O)OCC1OC(O)CC(OC(=O)CC)C1O (centres unmarked) [WP1231]
- IC50 (U87): 380 µM
- IC50 (Colo357-FG): 550 µM

Compound: CCC(CC)C(=O)OCC1OC(O)CC(O)C1O [WP1319, 6-O-(2-Ethyl)Butyric-2-Deoxy-D-Glucopyranose]
- IC50 (U87): 3000 µM
- IC50 (Colo357-FG): 1700 µM

Compound: CCC(=O)OCC1OC(O)CC(O)C1OC(=O)CC (centres unmarked) [WP1242]
- IC50 (U87): 490 µM
- IC50 (Colo357-FG): 6380 µM

Compound: CCC(CC)C(=O)OC1CC(O)C(O)C(CO)O1 [WP1474, 1-O-(2-Ethyl)Butyryl-2-Deoxy-β-D-Glucopyranose]
- IC50 (U87): 2400 µM

Compound: CCCC(CCC)C(=O)O[C@@H]1CC(O)O[C@H](CO)[C@H]1O (stereo partly drawn) [WP1512, 3-O-Valproyl-2-Deoxy-D-Glucopyranose]
- IC50 (U87): 740 µM

Compound: CCC(CC)C(=O)OCC1OC(O)CC(O)C1OC(=O)C(CC)CC [WP1241, 4,6-Di-O-(2-Ethyl)Butyryl-2-Deoxy-α-D-Glucopyranose]
- IC50 (U87): 123 µM
- IC50 (Colo357-FG): 280 µM

Compound: CCC(CC)C(=O)OC1CC(O)OC(CO)C1O [WP1342, 3-O-(2-Ethyl)Butyryl-2-Deoxy-D-Glucopyranose]
- IC50 (U87): 2400 µM
- IC50 (Colo357-FG): 13200 µM

Compound: CCCC(=O)OCC1OC(O)CC(OC(=O)CCC)C1O (centres unmarked) [WP1213]
- IC50 (U87): 240 µM
- IC50 (Colo357-FG): 380 µM

Compound: CCCC(CCC)C(=O)OC[C@H]1OC(O)C[C@@H](O)[C@@H]1O (stereo partly drawn) [WP1491, 6-O-Valproyl-2-Deoxy-D-Glucopyranose]
- IC50 (U87): 2100 µM

Compound: CCCC(CCC)C(=O)O[C@H]1[C@H](O)CC(O)O[C@@H]1CO (stereo partly drawn) [WP1513, 4-O-Valproyl-2-Deoxy-D-Glucopyranose]
- IC50 (U87): 1200 µM
- IC50 (Colo357-FG): 1200 µM

Compound: CCCC(=O)OC[C@H]1OC(OC(=O)CCC)C[C@@H](O)[C@@H]1O (stereo partly drawn) [WP1217, 1,6-Di-O-Butyryl-2-Deoxy-D-Glucopyranose]
- IC50 (U87): 2330 µM

Compound: CCC(=O)OC1CC(O)C(O)C(CO)O1 (centres unmarked) [WP1216]
- IC50 (U87): 3580 µM

Compound: CCCC(CCC)C(=O)O[C@H]1C[C@@H](O)[C@H](O)[C@@H](CO)O1 [WP1490, 1-O-Valproyl-2-Deoxy-β-D-Glucopyranose]
- IC50 (U87): 2400 µM
- IC50 (Colo357-FG): 2000 µM

Compound: CCC(CC)C(=O)OCC1OCC(O)C(OC(=O)C(CC)CC)C1O (centres unmarked) [WP1357]
- IC50 (Colo357-FG): 540 µM

Compound: O=C(OCC1OC(O)CC(OC(=O)C2CCCC2)C1O)C1CCCC1 (centres unmarked) [WP1343]
- IC50 (U87): 109 µM
- IC50 (Colo357-FG): 750 µM

Compound: CCC(CC)C(=O)OCC1OC(O)CC(OC(=O)C(CC)CC)C1O (centres unmarked) [WP1234]
- IC50 (U87): 55 µM
- IC50 (Colo357-FG): 100 µM
